In patent publication US20140113898A1, “BISARYLSULFONE AND DIALKYLARYLSULFONE COMPOUNDS AS CALCIUM CHANNEL BLOCKERS” (Zalicus Pharmaceuticals Ltd., priority 2010, published 2014):

Columns and labels:
Assay type in all cases: cell-based
CaV2.2 = target: T1, CaV2.2 (Homo sapiens, UniProt Q00975); experiment: High-throughput CaV2.2/Kir2.3 FLIPR fluorescent assay; conditions: Table 4; Fluo-4 FLIPR; closed or inactivated state not stated; read-out: FLIPR data CaV2.2
T1 construct: expressed in transfected cells; host or cells: unnamed doxycycline-inducible cell line
Method in brief: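 IC50 was derived by logistic fitting of the FLIPR Fluo-4 signal recorded over 3 min after a 130 mM KCl stimulus. Before stimulation, cells (channel expression induced with doxycycline, 29 °C on assay day) were kept in pH 7.4 buffer with 2 mM KCl for the closed-state format or 12.5 mM KCl for the inactivated-state format.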

CaV3.1 = target: T2, CaV3.1 (Homo sapiens, UniProt O43497); experiment: High-throughput CaV3.1 T-type FLIPR fluorescent assay; conditions: Table 4; Fluo-4 FLIPR
T2 construct: expressed in transfected cells; host or cells: unnamed doxycycline-inducible cell line
T2 sequence (O43497 whole entry): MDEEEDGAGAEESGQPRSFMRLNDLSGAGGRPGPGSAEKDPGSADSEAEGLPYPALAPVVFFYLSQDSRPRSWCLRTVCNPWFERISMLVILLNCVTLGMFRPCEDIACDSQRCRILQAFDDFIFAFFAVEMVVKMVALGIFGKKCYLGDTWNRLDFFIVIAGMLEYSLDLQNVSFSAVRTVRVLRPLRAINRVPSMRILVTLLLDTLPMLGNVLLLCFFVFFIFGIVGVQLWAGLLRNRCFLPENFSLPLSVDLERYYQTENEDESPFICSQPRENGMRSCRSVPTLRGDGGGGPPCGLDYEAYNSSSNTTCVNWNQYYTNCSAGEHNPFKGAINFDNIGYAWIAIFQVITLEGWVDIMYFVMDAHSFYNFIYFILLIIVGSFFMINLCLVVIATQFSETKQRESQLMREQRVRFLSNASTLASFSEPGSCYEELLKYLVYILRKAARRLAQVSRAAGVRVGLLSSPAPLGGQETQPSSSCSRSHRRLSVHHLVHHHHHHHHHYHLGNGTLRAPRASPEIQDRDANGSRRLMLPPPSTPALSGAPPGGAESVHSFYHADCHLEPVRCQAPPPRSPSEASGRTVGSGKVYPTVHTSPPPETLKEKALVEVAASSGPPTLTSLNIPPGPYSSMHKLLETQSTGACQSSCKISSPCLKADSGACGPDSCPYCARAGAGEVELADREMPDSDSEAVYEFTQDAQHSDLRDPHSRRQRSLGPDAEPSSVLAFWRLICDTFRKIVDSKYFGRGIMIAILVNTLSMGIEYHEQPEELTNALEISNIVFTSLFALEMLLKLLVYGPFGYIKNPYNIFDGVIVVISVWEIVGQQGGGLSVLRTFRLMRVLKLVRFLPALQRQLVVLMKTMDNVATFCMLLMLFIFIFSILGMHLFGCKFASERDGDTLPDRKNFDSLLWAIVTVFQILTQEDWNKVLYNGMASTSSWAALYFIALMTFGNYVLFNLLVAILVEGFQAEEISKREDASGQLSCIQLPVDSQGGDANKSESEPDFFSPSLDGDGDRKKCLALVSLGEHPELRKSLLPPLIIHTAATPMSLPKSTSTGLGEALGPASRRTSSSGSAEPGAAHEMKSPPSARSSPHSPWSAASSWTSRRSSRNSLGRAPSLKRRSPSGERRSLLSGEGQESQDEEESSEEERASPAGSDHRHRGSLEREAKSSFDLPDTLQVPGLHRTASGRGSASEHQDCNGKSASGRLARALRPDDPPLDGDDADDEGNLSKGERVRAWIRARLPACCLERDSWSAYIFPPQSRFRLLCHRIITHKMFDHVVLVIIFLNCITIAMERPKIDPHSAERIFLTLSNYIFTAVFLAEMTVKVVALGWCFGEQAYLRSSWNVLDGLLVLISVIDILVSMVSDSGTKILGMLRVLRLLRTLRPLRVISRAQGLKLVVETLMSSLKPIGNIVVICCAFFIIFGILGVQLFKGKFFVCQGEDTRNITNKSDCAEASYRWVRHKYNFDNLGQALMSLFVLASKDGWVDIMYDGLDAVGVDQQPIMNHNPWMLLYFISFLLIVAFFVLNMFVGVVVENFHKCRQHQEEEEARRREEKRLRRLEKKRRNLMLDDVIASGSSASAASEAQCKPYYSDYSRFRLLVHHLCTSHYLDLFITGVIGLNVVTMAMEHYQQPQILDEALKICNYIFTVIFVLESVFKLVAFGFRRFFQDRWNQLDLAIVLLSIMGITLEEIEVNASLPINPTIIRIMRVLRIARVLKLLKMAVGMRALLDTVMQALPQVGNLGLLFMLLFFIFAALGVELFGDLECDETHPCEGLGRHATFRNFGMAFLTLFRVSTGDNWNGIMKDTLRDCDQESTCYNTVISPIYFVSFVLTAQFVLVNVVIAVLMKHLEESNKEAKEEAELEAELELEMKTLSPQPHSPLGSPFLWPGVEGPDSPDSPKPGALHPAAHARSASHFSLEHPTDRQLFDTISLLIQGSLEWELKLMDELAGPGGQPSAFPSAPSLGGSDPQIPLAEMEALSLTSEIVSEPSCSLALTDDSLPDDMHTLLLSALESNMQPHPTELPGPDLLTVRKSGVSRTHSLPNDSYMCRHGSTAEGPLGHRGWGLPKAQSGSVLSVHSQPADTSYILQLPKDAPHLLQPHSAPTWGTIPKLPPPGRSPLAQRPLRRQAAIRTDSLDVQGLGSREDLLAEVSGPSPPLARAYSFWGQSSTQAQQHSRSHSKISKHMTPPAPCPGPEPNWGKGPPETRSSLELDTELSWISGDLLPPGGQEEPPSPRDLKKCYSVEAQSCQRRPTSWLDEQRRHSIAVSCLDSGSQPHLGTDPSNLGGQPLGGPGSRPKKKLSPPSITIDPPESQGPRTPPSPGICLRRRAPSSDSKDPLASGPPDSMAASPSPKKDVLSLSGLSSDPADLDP
Experimental: (§1) Cells were plated in 384-well, clear-bottom, black-walled, poly-D-lysine coated plates (Becton Dickinson, Franklin Lake, N.J.) 2 days prior to use in the FLIPR assay. 100 μL of cells (2.0×10^6 cell/mL) containing doxycyline (Sigma-Aldrich, 1.5 μg/mL; to induce channel expression) were added to each well using a Multidrop (Thermo Scientific, Waltham, Mass.) and were maintained in 5% CO2 incubator at 37° C. On the morning of the assay, cells were transferred to a 5% CO2 incubator at 29° C.
Cells were washed with a wash buffer containing (in mM): 118 NaCl, 18.4 HEPES, 11.7 D-glucose, 0.05 CaCl2, 0.5 MgSO4, 1 KCl, and 1.2 KH2PO4, with the pH adjusted to 7.2 with NaOH. 4.4 μM of the fluorescent indicator dye, Fluo-4 (Invitrogen), prepared in pluronic acid
(Sigma-Aldrich), was loaded into the wells and incubated for 45 minutes at 29° C. in 5% CO2. Cells were then rinsed with the following low Ca^2+ buffer (in mM): 0.34 Na2HPO4, 4.2 NaHCO3, 0.44 KH2PO4, 0.41 MgSO4, 0.49 MgCl2-6H2O, 20 HEPES, 5.5 D-Glucose, 137 NaCl, 5.3 KCl, and 0.001 CaCl2, with 0.1% BSA and the pH adjusted to 7.2 with NaOH. Concentration-dependent response curves were generated from 5 mM stock solutions prepared in DMSO (Sigma-Aldrich) and diluted in the buffer containing low Ca^2+ and incubated for 20 minutes at 29° C. in 5% CO2. Calcium entry was evoked with an addition of (in mM): 0.34 Na2HPO4, 4.2 NaHCO3, 0.44 KH2PO4, 0.41 MgSO4, 0.49 MgCl2-6H2O, 20 HEPES, 5.5 D-Glucose, 137 NaCl, 5.3 KCl, and 6 CaCl2, with 0.1% BSA and the pH adjusted to 7.2 with NaOH. A change in the Fluo-4 fluorescence signal was assessed using FLIPR^TETRA™ instrument (Molecular Devices, Sunnyvale, Calif.) for 3 minutes following the elevation of extracellular KCl using an illumination wavelength of 470-495 nm with emissions recorded at 515-575 nm.
(§2) Concentration-dependent response curves were obtained by comparing the fluorescence signal in the presence of compound and fitted with a logistic function (1) to obtain the concentration that inhibited 50% (IC50) of the RLU signal using OriginPro v.7.5 software (OriginLab, Northampton, Mass.).
(§3) To assess the quality of the FLIPR assays the Z-factor (2) was used to quantify the suitability of the assay conditions using the following equation: […]
(§4) Data are expressed as mean and standard deviation (SD).

CaV3.2 = target: T3, CaV3.2 (Homo sapiens, UniProt O95180); experiment: High-throughput CaV3.2/Kir2.3 T-type FLIPR fluorescent assay; conditions: Table 4; Fluo-4 FLIPR; closed or inactivated state not stated
T3 construct: expressed in transfected cells; host or cells: unnamed doxycycline-inducible cell line
T3 sequence (O95180 whole entry): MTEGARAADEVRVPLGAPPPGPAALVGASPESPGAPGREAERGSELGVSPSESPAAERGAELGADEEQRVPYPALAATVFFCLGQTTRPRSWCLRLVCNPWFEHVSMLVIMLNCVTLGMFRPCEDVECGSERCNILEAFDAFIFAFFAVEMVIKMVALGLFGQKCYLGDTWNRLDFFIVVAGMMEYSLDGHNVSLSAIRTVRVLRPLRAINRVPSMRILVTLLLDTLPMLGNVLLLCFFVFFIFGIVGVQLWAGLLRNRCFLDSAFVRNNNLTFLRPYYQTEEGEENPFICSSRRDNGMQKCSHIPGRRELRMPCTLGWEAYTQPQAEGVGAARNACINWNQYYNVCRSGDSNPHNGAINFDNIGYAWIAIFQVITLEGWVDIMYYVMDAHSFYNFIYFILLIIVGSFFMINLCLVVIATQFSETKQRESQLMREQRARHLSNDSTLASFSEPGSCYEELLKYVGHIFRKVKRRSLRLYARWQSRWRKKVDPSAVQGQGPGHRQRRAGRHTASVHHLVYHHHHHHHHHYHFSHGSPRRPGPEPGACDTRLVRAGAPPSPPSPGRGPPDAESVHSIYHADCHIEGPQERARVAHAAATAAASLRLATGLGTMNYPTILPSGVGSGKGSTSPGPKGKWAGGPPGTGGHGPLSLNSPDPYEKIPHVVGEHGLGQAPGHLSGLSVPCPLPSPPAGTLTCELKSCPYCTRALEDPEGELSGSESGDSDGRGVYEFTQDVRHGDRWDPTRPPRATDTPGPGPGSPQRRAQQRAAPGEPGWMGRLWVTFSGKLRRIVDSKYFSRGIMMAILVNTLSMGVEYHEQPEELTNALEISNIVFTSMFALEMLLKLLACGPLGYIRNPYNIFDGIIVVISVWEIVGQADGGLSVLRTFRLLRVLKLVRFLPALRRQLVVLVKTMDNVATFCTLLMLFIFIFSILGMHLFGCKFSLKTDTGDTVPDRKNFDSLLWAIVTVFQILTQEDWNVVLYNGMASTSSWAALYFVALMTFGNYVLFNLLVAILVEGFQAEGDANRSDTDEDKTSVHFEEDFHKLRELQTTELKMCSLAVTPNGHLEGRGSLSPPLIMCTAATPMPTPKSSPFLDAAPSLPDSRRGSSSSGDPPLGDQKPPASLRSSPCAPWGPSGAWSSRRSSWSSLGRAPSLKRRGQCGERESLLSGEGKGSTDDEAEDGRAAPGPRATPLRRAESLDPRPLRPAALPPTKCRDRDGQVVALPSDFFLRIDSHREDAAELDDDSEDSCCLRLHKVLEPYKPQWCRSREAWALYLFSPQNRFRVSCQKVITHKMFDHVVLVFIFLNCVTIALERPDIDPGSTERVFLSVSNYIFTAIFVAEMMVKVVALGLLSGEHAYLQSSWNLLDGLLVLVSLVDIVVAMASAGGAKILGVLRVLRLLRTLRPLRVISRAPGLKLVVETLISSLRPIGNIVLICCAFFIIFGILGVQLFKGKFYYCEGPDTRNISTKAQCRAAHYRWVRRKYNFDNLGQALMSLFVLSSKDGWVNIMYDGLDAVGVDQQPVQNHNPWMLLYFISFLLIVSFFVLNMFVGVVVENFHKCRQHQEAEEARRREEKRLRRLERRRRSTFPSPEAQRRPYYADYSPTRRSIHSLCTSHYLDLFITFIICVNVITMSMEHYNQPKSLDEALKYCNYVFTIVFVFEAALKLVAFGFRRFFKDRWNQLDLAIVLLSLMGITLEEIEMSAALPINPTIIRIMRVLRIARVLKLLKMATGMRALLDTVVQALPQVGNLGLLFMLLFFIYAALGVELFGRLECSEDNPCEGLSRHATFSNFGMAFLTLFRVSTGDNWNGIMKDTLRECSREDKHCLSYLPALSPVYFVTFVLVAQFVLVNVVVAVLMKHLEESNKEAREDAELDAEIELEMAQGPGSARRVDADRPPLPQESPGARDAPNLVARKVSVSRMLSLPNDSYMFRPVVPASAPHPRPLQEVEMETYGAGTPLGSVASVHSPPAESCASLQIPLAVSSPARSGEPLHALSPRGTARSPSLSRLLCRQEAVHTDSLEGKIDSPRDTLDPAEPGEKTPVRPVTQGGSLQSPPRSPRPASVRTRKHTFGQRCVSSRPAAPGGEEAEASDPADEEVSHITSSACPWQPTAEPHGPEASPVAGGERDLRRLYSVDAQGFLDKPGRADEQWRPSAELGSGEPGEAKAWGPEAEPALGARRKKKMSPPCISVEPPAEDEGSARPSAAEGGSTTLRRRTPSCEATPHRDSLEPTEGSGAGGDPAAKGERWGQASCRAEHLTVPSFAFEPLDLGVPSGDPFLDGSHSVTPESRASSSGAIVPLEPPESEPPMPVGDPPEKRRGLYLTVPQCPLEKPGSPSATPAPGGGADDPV
Experimental: as §1, with “µL” for “μL”, “(1.2×10^6” for “(2.0×10^6”
Cells were washed with a wash buffer containing (in mM): 118 NaCl, 18.4 HEPES, 11.7 D-glucose, 2 CaCl2, 0.5 MgSO4, 4.7 KCl, and 1.2 KH2PO4, with the pH adjusted to 7.2 with
NaOH. 4.4 μM of the fluorescent indicator dye Fluo-4 (Invitrogen) prepared in pluronic acid (Sigma-Aldrich) was loaded into the wells and incubated for 45 minutes at 29° C. in 5% CO2. Cells were then rinsed with either a 2 mM KCl closed-state buffer (in mM: 138.5 NaCl, 10 HEPES, 10 D-glucose, 1 CaCl2, and 2 KCl, with the pH adjusted to 7.4 with NaOH) when performing the closed-state assay or 7.6 mM KCl inactivated-state buffer (in mM: 130.9 NaCl, 10 HEPES, 10 D-glucose, 1 CaCl2, and 7.6 mM KCl, with the pH adjusted to 7.4 with NaOH) when performing the inactivated-state assay. Concentration-dependent response curves were generated from 5 mM stock solutions prepared in DMSO (Sigma-Aldrich), diluted in either the 2 mM KCl buffer or 7.6 mM KCl buffer, and incubated for 20 minutes at 29° C. in 5% CO2. Calcium entry was evoked with an addition of either 12 mM KCl stimulation buffer (in mM: 128.5 NaCl, 10 HEPES, 10 D-glucose, 1 CaCl2, and 12 KCl, with the pH adjusted to 7.4 with NaOH) or 14.5 mM KCl stimulation buffer (in mM: 126 NaCl, 10 HEPES, 10 D-glucose, 1 CaCl2, and 14.5 KCl, with the pH adjusted to 7.4 with NaOH) for the closed-state or inactivated-state assay respectively. A change in the Fluo-4 fluorescence signal was assessed using FLIPR^TETRA™ instrument (Molecular Devices, Sunnyvale, Calif.) for 3 minutes following the elevation of extracellular KCl using an illumination wavelength of 470-495 nm with emissions recorded at 515-575 nm.
as §2, §3, §4

| SMILES | IC50 (CaV2.2) | IC50 (CaV3.1) | IC50 (CaV3.2) |
| --- | --- | --- | --- |
| CS(=O)(=O)c1cc(C(F)(F)F)ccc1C(=O)NCc1ccc(S(=O)(=O)c2cccc(C(F)(F)F)c2)cc1 [Compound 11, 2-(methylsulfonyl)-4-(trifluoromethyl)-N-(4-((3-(trifluoromethyl)phenyl)sulfonyl)benzyl)benzamide] | 410 nM | 1070 nM | 590 nM |
| O=C(NCc1ccc(S(=O)(=O)c2cccc(C(F)(F)F)c2)cc1)c1cn2cc(C(F)(F)F)ccc2n1 [Compound 13, 6-(trifluoromethyl)-N-(4-((3-(trifluoromethyl)phenyl)sulfonyl)benzyl)imidazo[1,2-a]pyridine-2-carboxamide] | 300 nM | 2020 nM | 740 nM |
| O=C(NCc1ccc(S(=O)(=O)c2cccc(C(F)(F)F)c2)cc1)c1ccnc(C(F)(F)F)c1 [Compound 16, 2-(trifluoromethyl)-N-(4-((3-(trifluoromethyl)phenyl)sulfonyl)benzyl)isonicotinamide] | 940 nM | 1430 nM | 640 nM |
| O=C(NCc1cccc(S(=O)(=O)c2cccc(C(F)(F)F)c2)c1)c1ccc(Cl)c(F)c1 [Compound 17, 4-chloro-3-fluoro-N-(3-((3-(trifluoromethyl)phenyl)sulfonyl)benzyl)benzamide] | 140 nM | 1630 nM | 940 nM |
| CS(=O)(=O)c1nc(C(F)(F)F)ccc1C(=O)NCc1cccc(S(=O)(=O)c2cccc(C(F)(F)F)c2)c1 [Compound 21, 2-(methylsulfonyl)-6-(trifluoromethyl)-N-(3-((3-(trifluoromethyl)phenyl)sulfonyl)benzyl)nicotinamide] | 760 nM | 9070 nM | 2680 nM |
| Cn1nc(C(F)(F)F)cc1C(=O)NCc1cccc(S(=O)(=O)c2cccc(C(F)(F)F)c2)c1 [Compound 22, 1-methyl-3-(trifluoromethyl)-N-(3-((3-(trifluoromethyl)phenyl)sulfonyl)benzyl)-1H-pyrazole-5-carboxamide] | 220 nM | 3010 nM | 640 nM |
| CS(=O)(=O)c1cc(C(=O)NCc2cccc(S(=O)(=O)c3cccc(C(F)(F)F)c3)c2)cc(C(F)(F)F)n1 [Compound 23, 2-(methylsulfonyl)-6-(trifluoromethyl)-N-(3-((3-(trifluoromethyl)phenyl)sulfonyl)benzyl)isonicotinamide] | 490 nM | 2050 nM | 570 nM |
| CC(C)S(=O)(=O)c1cc(C(F)(F)F)cnc1C(=O)NCc1cccc(S(=O)(=O)c2cccc(C(F)(F)F)c2)c1 [Compound 25, 3-(isopropylsulfonyl)-5-(trifluoromethyl)-N-(3-((3-(trifluoromethyl)phenyl)sulfonyl)benzyl)picolinamide] | 170 nM | 1580 nM | 1740 nM |
| O=C(NCc1cccc(S(=O)(=O)c2cccc(C(F)(F)F)c2)c1)c1cnc(C(F)(F)F)nc1 [Compound 26, 2-(trifluoromethyl)-N-(3-((3-(trifluoromethyl)phenyl)sulfonyl)benzyl)pyrimidine-5-carboxamide] | 580 nM | 1880 nM | 1180 nM |

Continued, values first:

| IC50 (CaV2.2) | IC50 (CaV3.1) | IC50 (CaV3.2) | SMILES |
| --- | --- | --- | --- |
| 630 nM | 2290 nM | 590 nM | O=C(NCc1ccc(S(=O)(=O)c2cccc(C(F)(F)F)c2)cc1)c1ccnn1CC(F)(F)F [Compound 12, 1-(2,2,2-trifluoroethyl)-N-(4-((3-(trifluoromethyl)phenyl)sulfonyl)benzyl)-1H-pyrazole-5-carboxamide] |
| 850 nM | 2380 nM | 430 nM | COc1cc(C(=O)NCc2ccc(S(=O)(=O)c3cccc(C(F)(F)F)c3)cc2)cc(Cl)n1 [Compound 14, 2-chloro-6-methoxy-N-(4-((3-(trifluoromethyl)phenyl)sulfonyl)benzyl)isonicotinamide] |
| 740 nM | 1390 nM | 490 nM | O=C(NCc1ccc(S(=O)(=O)c2cccc(C(F)(F)F)c2)cc1)c1ccc(Cl)c(OC(F)(F)F)c1 [Compound 15, 4-chloro-3-(trifluoromethoxy)-N-(4-((3-(trifluoromethyl)phenyl)sulfonyl)benzyl)benzamide] |
| 220 nM | 1570 nM | 840 nM | O=C(NCc1cccc(S(=O)(=O)c2cccc(C(F)(F)F)c2)c1)c1cc(F)cc(Cl)c1 [Compound 18, 3-chloro-5-fluoro-N-(3-((3-(trifluoromethyl)phenyl)sulfonyl)benzyl)benzamide] |
| 490 nM | 2100 nM | 970 nM | O=C(NCc1cccc(S(=O)(=O)c2cccc(C(F)(F)F)c2)c1)c1ccc(C(F)(F)F)nc1 [Compound 19, 6-(trifluoromethyl)-N-(3-((3-(trifluoromethyl)phenyl)sulfonyl)benzyl)nicotinamide] |
| 230 nM | 1810 nM | 930 nM | O=C(NCc1cccc(S(=O)(=O)c2cccc(C(F)(F)F)c2)c1)c1ccc(C(F)(F)F)cn1 [Compound 20, 5-(trifluoromethyl)-N-(3-((3-(trifluoromethyl)phenyl)sulfonyl)benzyl)picolinamide] |
| 410 nM | 3240 nM | 550 nM | CS(=O)(=O)c1cc(C(F)(F)F)cnc1C(=O)NCc1cccc(S(=O)(=O)c2cccc(C(F)(F)F)c2)c1 [Compound 24, 3-(methylsulfonyl)-5-(trifluoromethyl)-N-(3-((3-(trifluoromethyl)phenyl)sulfonyl)benzyl)picolinamide] |
| 310 nM | 3360 nM | 2450 nM | O=C(NCc1cccc(S(=O)(=O)c2cccc(C(F)(F)F)c2)c1)c1ccnc(C(F)(F)F)n1 [Compound 27, 2-(trifluoromethyl)-N-(3-((3-(trifluoromethyl)phenyl)sulfonyl)benzyl)pyrimidine-4-carboxamide] |
| 190 nM | 1510 nM | 730 nM | CS(=O)(=O)c1cc(C(F)(F)F)ccc1C(=O)NCc1cccc(S(=O)(=O)c2cccc(C(F)(F)F)c2)c1 [Compound 28, 2-(methylsulfonyl)-4-(trifluoromethyl)-N-(3-((3-(trifluoromethyl)phenyl)sulfonyl)benzyl)benzamide] |
